Earlier results on two compounds are cited in patent US7585978B2, “Processes of manufacturing substituted-1,4-dihydropyridines, improved aqueous solutions thereof, and processes of manufacturing the solutions” (Navinta LLC, priority 2006, dated 2009).

SMILES strings stand for the structures. Entries after “also recorded” stand apart in the source; their conditions may differ. Structures can show the parent of a compound that is named as a salt.

The conditions of series [1]: hydrochloride.

As to `COC(=O)C1=C(C)NC(C)=C(C(=O)OCCN(C)Cc2ccccc2)C1c1cccc([N+](=O)[O-])c1` (stereo not drawn) [nicardipine hydrochloride], the solubility in water entry in series [1] is recorded as “poorly soluble in water; also recorded: very poorly soluble in water”.

Regarding `N=C(N)NCCC[C@H](N)C(=O)O` [L-arginine], the “pKa (first of three pKa values)” value was 2.18 and the “pKa (second of three pKa values)” value is recorded as 9.09.
